Columns and labels:
Hepatotoxicity [1] = tested on: Hepatotoxicity;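 on HepSE Combined Scores: combined hepatic side effect score as listed in the training data of the Drug Induced Liver Injury Prediction System (DILIps)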;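 on HepSE cholecystitis: Cholecystitis-related hepatic side effect score drawn from the DILIps (drug-induced liver injury prediction) training data set; call rule not given here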;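 on HepSE cholelithiasis: hepatic side effect score for cholelithiasis, drawn from the DILIps training data for predicting drug-induced liver injury; call rule not given here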;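 on HepSE cirrhosis: cirrhosis hepatic side effect score taken from the DILIps (drug-induced liver injury prediction) training set; call rule not given here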;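 on HepSE elevated liver function tests: hepatic side effect score for raised liver function tests, as recorded in the DILIps training set used for predicting drug-induced liver injury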;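 on HepSE jaundice: Jaundice-related hepatic side-effect score drawn from the training data of the DILIps (drug-induced liver injury prediction system); call rule not given here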
Hepatotoxicity [2] = tested on: Hepatotoxicity; remark: listed apart in the source;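 on HepSE Combined Scores: combined hepatic side effect score as listed in the training data of the Drug Induced Liver Injury Prediction System (DILIps)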;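 on HepSE cholecystitis: Cholecystitis-related hepatic side effect score drawn from the DILIps (drug-induced liver injury prediction) training data set; call rule not given here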;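 on HepSE cholelithiasis: hepatic side effect score for cholelithiasis, drawn from the DILIps training data for predicting drug-induced liver injury; call rule not given here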;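 on HepSE cirrhosis: cirrhosis hepatic side effect score taken from the DILIps (drug-induced liver injury prediction) training set; call rule not given here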;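 on HepSE elevated liver function tests: hepatic side effect score for raised liver function tests, as recorded in the DILIps training set used for predicting drug-induced liver injury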;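 on HepSE jaundice: Jaundice-related hepatic side-effect score drawn from the training data of the DILIps (drug-induced liver injury prediction system); call rule not given here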
Hepatotoxicity [3] = tested on: Hepatotoxicity; remark: listed apart in the source;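 on HepSE Combined Scores: combined hepatic side effect score as listed in the training data of the Drug Induced Liver Injury Prediction System (DILIps)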;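 on HepSE cholecystitis: Cholecystitis-related hepatic side effect score drawn from the DILIps (drug-induced liver injury prediction) training data set; call rule not given here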;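 on HepSE cholelithiasis: hepatic side effect score for cholelithiasis, drawn from the DILIps training data for predicting drug-induced liver injury; call rule not given here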;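 on HepSE cirrhosis: cirrhosis hepatic side effect score taken from the DILIps (drug-induced liver injury prediction) training set; call rule not given here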;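 on HepSE elevated liver function tests: hepatic side effect score for raised liver function tests, as recorded in the DILIps training set used for predicting drug-induced liver injury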;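 on HepSE jaundice: Jaundice-related hepatic side-effect score drawn from the training data of the DILIps (drug-induced liver injury prediction system); call rule not given here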
Hepatotoxicity [4] = tested on: Hepatotoxicity; remark: listed apart in the source;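 on HepSE Combined Scores: combined hepatic side effect score as listed in the training data of the Drug Induced Liver Injury Prediction System (DILIps)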;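 on HepSE cholecystitis: Cholecystitis-related hepatic side effect score drawn from the DILIps (drug-induced liver injury prediction) training data set; call rule not given here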;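 on HepSE cholelithiasis: hepatic side effect score for cholelithiasis, drawn from the DILIps training data for predicting drug-induced liver injury; call rule not given here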;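 on HepSE cirrhosis: cirrhosis hepatic side effect score taken from the DILIps (drug-induced liver injury prediction) training set; call rule not given here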;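 on HepSE elevated liver function tests: hepatic side effect score for raised liver function tests, as recorded in the DILIps training set used for predicting drug-induced liver injury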;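 on HepSE jaundice: Jaundice-related hepatic side-effect score drawn from the training data of the DILIps (drug-induced liver injury prediction system); call rule not given here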
Hepatotoxicity [5] = tested on: Hepatotoxicity; remark: listed apart in the source
Hepatotoxicity [6] = tested on: Hepatotoxicity; remark: listed apart in the source
Hepatotoxicity [7] = tested on: Hepatotoxicity; remark: listed apart in the source
Hepatotoxicity [8] = tested on: Hepatotoxicity; remark: listed apart in the source
Hepatotoxicity [9] = tested on: Hepatotoxicity; remark: listed apart in the source
Hepatotoxicity [10] = tested on: Hepatotoxicity; remark: listed apart in the source
Hepatotoxicity [11] = tested on: Hepatotoxicity; remark: listed apart in the source
Hepatotoxicity [12] = tested on: Hepatotoxicity; remark: listed apart in the source
Hepatotoxicity [13] = tested on: Hepatotoxicity; remark: listed apart in the source
Hepatotoxicity [14] = tested on: Hepatotoxicity; remark: listed apart in the source

Structure (SMILES): CCC1=C[C@@H]2CN(C1)Cc1c([nH]c3ccccc13)[C@@](C(=O)OC)(c1cc3c(cc1OC)N(C)[C@H]1[C@@](O)(C(=O)OC)[C@H](OC(C)=O)[C@]4(CC)C=CCN5CC[C@]31[C@@H]54)C2 [VINORELBINE]
- HepSE_cirrhosis (Hepatotoxicity [1]): 0
- HepSE_cholelithiasis (Hepatotoxicity [2]): 0
- HepSE_elevated liver function tests (Hepatotoxicity [3]): 0
- HepSE_liver fatty (Hepatotoxicity [4]): 0
- HepSE_cholecystitis (Hepatotoxicity [5]): 0
- HepSE_Combined Scores (Hepatotoxicity [6]): 0
- HepSE_jaundice (Hepatotoxicity [7]): 0
- HepSE_hepatitis (Hepatotoxicity [8]): 0
- HepSE_liver function tests abnormal (Hepatotoxicity [9]): 0
- HepSE_bilirubinemia (Hepatotoxicity [10]): 0
- HepSE_hepatic necrosis (Hepatotoxicity [11]): 0
- HepSE_liver disease (Hepatotoxicity [12]): 0
- HepSE_hepatic failure (Hepatotoxicity [13]): 0
- HepSE_hepatomegaly (Hepatotoxicity [14]): 0

Structure (SMILES): Nc1cc(Cl)c(N=C2NCCN2)c(Cl)c1 [APRACLONIDINE]
- HepSE_cirrhosis (Hepatotoxicity [1]): 0
- HepSE_cholelithiasis (Hepatotoxicity [2]): 0
- HepSE_elevated liver function tests (Hepatotoxicity [3]): 0
- HepSE_liver fatty (Hepatotoxicity [4]): 0
- HepSE_cholecystitis (Hepatotoxicity [5]): 0
- HepSE_Combined Scores (Hepatotoxicity [6]): 0
- HepSE_jaundice (Hepatotoxicity [7]): 0
- HepSE_hepatitis (Hepatotoxicity [8]): 0
- HepSE_liver function tests abnormal (Hepatotoxicity [9]): 0
- HepSE_bilirubinemia (Hepatotoxicity [10]): 0
- HepSE_hepatic necrosis (Hepatotoxicity [11]): 0
- HepSE_liver disease (Hepatotoxicity [12]): 0
- HepSE_hepatic failure (Hepatotoxicity [13]): 0
- HepSE_hepatomegaly (Hepatotoxicity [14]): 0

Structure (SMILES): CC(=O)O[C@]1(C(C)=O)CC[C@H]2[C@@H]3C=C(C)C4=CC(=O)CC[C@]4(C)[C@H]3CC[C@@]21C [MEGESTROL ACETATE]
- HepSE_cirrhosis (Hepatotoxicity [1]): 0
- HepSE_cholelithiasis (Hepatotoxicity [2]): 0
- HepSE_elevated liver function tests (Hepatotoxicity [3]): 0
- HepSE_liver fatty (Hepatotoxicity [4]): 0
- HepSE_cholecystitis (Hepatotoxicity [5]): 0
- HepSE_Combined Scores (Hepatotoxicity [6]): 1
- HepSE_jaundice (Hepatotoxicity [7]): 0
- HepSE_hepatitis (Hepatotoxicity [8]): 0
- HepSE_liver function tests abnormal (Hepatotoxicity [9]): 0
- HepSE_bilirubinemia (Hepatotoxicity [10]): 0
- HepSE_hepatic necrosis (Hepatotoxicity [11]): 0
- HepSE_liver disease (Hepatotoxicity [12]): 0
- HepSE_hepatic failure (Hepatotoxicity [13]): 0
- HepSE_hepatomegaly (Hepatotoxicity [14]): 1

Structure (SMILES): CC(C)CC(N(C)C)C1(c2ccc(Cl)cc2)CCC1 (configuration not stated) [SIBUTRAMINE]
- HepSE_cirrhosis (Hepatotoxicity [1]): 0
- HepSE_cholelithiasis (Hepatotoxicity [2]): 1
- HepSE_elevated liver function tests (Hepatotoxicity [3]): 0
- HepSE_liver fatty (Hepatotoxicity [4]): 0
- HepSE_cholecystitis (Hepatotoxicity [5]): 1
- HepSE_Combined Scores (Hepatotoxicity [6]): 3
- HepSE_jaundice (Hepatotoxicity [7]): 0
- HepSE_hepatitis (Hepatotoxicity [8]): 0
- HepSE_liver function tests abnormal (Hepatotoxicity [9]): 1
- HepSE_bilirubinemia (Hepatotoxicity [10]): 0
- HepSE_hepatic necrosis (Hepatotoxicity [11]): 0
- HepSE_liver disease (Hepatotoxicity [12]): 0
- HepSE_hepatic failure (Hepatotoxicity [13]): 0
- HepSE_hepatomegaly (Hepatotoxicity [14]): 0

Structure (SMILES): CCC1(c2ccccc2)C(=O)NCNC1=O [PRIMIDONE]
- HepSE_cirrhosis (Hepatotoxicity [1]): 0
- HepSE_cholelithiasis (Hepatotoxicity [2]): 0
- HepSE_elevated liver function tests (Hepatotoxicity [3]): 0
- HepSE_liver fatty (Hepatotoxicity [4]): 0
- HepSE_cholecystitis (Hepatotoxicity [5]): 0
- HepSE_Combined Scores (Hepatotoxicity [6]): 0
- HepSE_jaundice (Hepatotoxicity [7]): 0
- HepSE_hepatitis (Hepatotoxicity [8]): 0
- HepSE_liver function tests abnormal (Hepatotoxicity [9]): 0
- HepSE_bilirubinemia (Hepatotoxicity [10]): 0
- HepSE_hepatic necrosis (Hepatotoxicity [11]): 0
- HepSE_liver disease (Hepatotoxicity [12]): 0
- HepSE_hepatic failure (Hepatotoxicity [13]): 0
- HepSE_hepatomegaly (Hepatotoxicity [14]): 0

Structure (SMILES): CN[C@@H]1[C@H](O)[C@H](NC)[C@H]2O[C@@]3(O)C(=O)C[C@@H](C)O[C@H]3O[C@@H]2[C@H]1O [SPECTINOMYCIN]
- HepSE_cirrhosis (Hepatotoxicity [1]): 0
- HepSE_cholelithiasis (Hepatotoxicity [2]): 0
- HepSE_elevated liver function tests (Hepatotoxicity [3]): 0
- HepSE_liver fatty (Hepatotoxicity [4]): 0
- HepSE_cholecystitis (Hepatotoxicity [5]): 0
- HepSE_Combined Scores (Hepatotoxicity [6]): 0
- HepSE_jaundice (Hepatotoxicity [7]): 0
- HepSE_hepatitis (Hepatotoxicity [8]): 0
- HepSE_liver function tests abnormal (Hepatotoxicity [9]): 0
- HepSE_bilirubinemia (Hepatotoxicity [10]): 0
- HepSE_hepatic necrosis (Hepatotoxicity [11]): 0
- HepSE_liver disease (Hepatotoxicity [12]): 0
- HepSE_hepatic failure (Hepatotoxicity [13]): 0
- HepSE_hepatomegaly (Hepatotoxicity [14]): 0

Structure (SMILES): CSc1ccc2c(c1)N(CCC1CCCCN1C)c1ccccc1S2 (configuration not stated) [THIORIDAZINE]
- HepSE_cirrhosis (Hepatotoxicity [1]): 0
- HepSE_cholelithiasis (Hepatotoxicity [2]): 0
- HepSE_elevated liver function tests (Hepatotoxicity [3]): 0
- HepSE_liver fatty (Hepatotoxicity [4]): 0
- HepSE_cholecystitis (Hepatotoxicity [5]): 0
- HepSE_Combined Scores (Hepatotoxicity [6]): 1
- HepSE_jaundice (Hepatotoxicity [7]): 1
- HepSE_hepatitis (Hepatotoxicity [8]): 0
- HepSE_liver function tests abnormal (Hepatotoxicity [9]): 0
- HepSE_bilirubinemia (Hepatotoxicity [10]): 0
- HepSE_hepatic necrosis (Hepatotoxicity [11]): 0
- HepSE_liver disease (Hepatotoxicity [12]): 0
- HepSE_hepatic failure (Hepatotoxicity [13]): 0
- HepSE_hepatomegaly (Hepatotoxicity [14]): 0

Structure (SMILES): CCCSc1ccc2nc(NC(=O)OC)[nH]c2c1 [ALBENDAZOLE]
- HepSE_cirrhosis (Hepatotoxicity [1]): 0
- HepSE_cholelithiasis (Hepatotoxicity [2]): 0
- HepSE_elevated liver function tests (Hepatotoxicity [3]): 0
- HepSE_liver fatty (Hepatotoxicity [4]): 0
- HepSE_cholecystitis (Hepatotoxicity [5]): 0
- HepSE_Combined Scores (Hepatotoxicity [6]): 3
- HepSE_jaundice (Hepatotoxicity [7]): 0
- HepSE_hepatitis (Hepatotoxicity [8]): 1
- HepSE_liver function tests abnormal (Hepatotoxicity [9]): 0
- HepSE_bilirubinemia (Hepatotoxicity [10]): 0
- HepSE_hepatic necrosis (Hepatotoxicity [11]): 0
- HepSE_liver disease (Hepatotoxicity [12]): 1
- HepSE_hepatic failure (Hepatotoxicity [13]): 1
- HepSE_hepatomegaly (Hepatotoxicity [14]): 0

Structure (SMILES): S=P(N1CC1)(N1CC1)N1CC1 [THIOTEPA]
- HepSE_cirrhosis (Hepatotoxicity [1]): 0
- HepSE_cholelithiasis (Hepatotoxicity [2]): 0
- HepSE_elevated liver function tests (Hepatotoxicity [3]): 0
- HepSE_liver fatty (Hepatotoxicity [4]): 0
- HepSE_cholecystitis (Hepatotoxicity [5]): 0
- HepSE_Combined Scores (Hepatotoxicity [6]): 1
- HepSE_jaundice (Hepatotoxicity [7]): 0
- HepSE_hepatitis (Hepatotoxicity [8]): 0
- HepSE_liver function tests abnormal (Hepatotoxicity [9]): 0
- HepSE_bilirubinemia (Hepatotoxicity [10]): 1
- HepSE_hepatic necrosis (Hepatotoxicity [11]): 0
- HepSE_liver disease (Hepatotoxicity [12]): 0
- HepSE_hepatic failure (Hepatotoxicity [13]): 0
- HepSE_hepatomegaly (Hepatotoxicity [14]): 0

Structure (SMILES): CNCC[C@H](Oc1cccc2ccccc12)c1cccs1 [DULOXETINE]
- HepSE_cirrhosis (Hepatotoxicity [1]; Liver): 0
- HepSE_cholelithiasis (Hepatotoxicity [2]; Liver): 0
- HepSE_elevated liver function tests (Hepatotoxicity [3]; Liver): 0
- HepSE_liver fatty (Hepatotoxicity [4]; Liver): 1
- HepSE_cholecystitis (Hepatotoxicity [5]; Liver): 0
- HepSE_Combined Scores (Hepatotoxicity [6]; Liver): 3
- HepSE_jaundice (Hepatotoxicity [7]; Liver): 1
- HepSE_hepatitis (Hepatotoxicity [8]; Liver): 1
- HepSE_liver function tests abnormal (Hepatotoxicity [9]; Liver): 0
- HepSE_bilirubinemia (Hepatotoxicity [10]; Liver): 0
- HepSE_hepatic necrosis (Hepatotoxicity [11]; Liver): 0
- HepSE_liver disease (Hepatotoxicity [12]; Liver): 0
- HepSE_hepatic failure (Hepatotoxicity [13]; Liver): 0
- HepSE_hepatomegaly (Hepatotoxicity [14]; Liver): 0

Structure (SMILES): NS(=O)(=O)c1cc2c(cc1C(F)(F)F)NCNS2(=O)=O [HYDROFLUMETHIAZIDE]
- HepSE_cirrhosis (Hepatotoxicity [1]): 0
- HepSE_cholelithiasis (Hepatotoxicity [2]): 0
- HepSE_elevated liver function tests (Hepatotoxicity [3]): 0
- HepSE_liver fatty (Hepatotoxicity [4]): 0
- HepSE_cholecystitis (Hepatotoxicity [5]): 0
- HepSE_Combined Scores (Hepatotoxicity [6]): 1
- HepSE_jaundice (Hepatotoxicity [7]): 1
- HepSE_hepatitis (Hepatotoxicity [8]): 0
- HepSE_liver function tests abnormal (Hepatotoxicity [9]): 0
- HepSE_bilirubinemia (Hepatotoxicity [10]): 0
- HepSE_hepatic necrosis (Hepatotoxicity [11]): 0
- HepSE_liver disease (Hepatotoxicity [12]): 0
- HepSE_hepatic failure (Hepatotoxicity [13]): 0
- HepSE_hepatomegaly (Hepatotoxicity [14]): 0

Structure (SMILES): CO/N=C(\C(=O)N[C@@H]1C(=O)N2C(C(=O)O)=C(CSc3nc(=O)c(=O)[nH]n3C)CS[C@H]12)c1csc(N)n1 [CEFTRIAXONE]
- HepSE_cirrhosis (Hepatotoxicity [1]): 0
- HepSE_cholelithiasis (Hepatotoxicity [2]): 0
- HepSE_elevated liver function tests (Hepatotoxicity [3]): 0
- HepSE_liver fatty (Hepatotoxicity [4]): 0
- HepSE_cholecystitis (Hepatotoxicity [5]): 0
- HepSE_Combined Scores (Hepatotoxicity [6]): 0
- HepSE_jaundice (Hepatotoxicity [7]): 0
- HepSE_hepatitis (Hepatotoxicity [8]): 0
- HepSE_liver function tests abnormal (Hepatotoxicity [9]): 0
- HepSE_bilirubinemia (Hepatotoxicity [10]): 0
- HepSE_hepatic necrosis (Hepatotoxicity [11]): 0
- HepSE_liver disease (Hepatotoxicity [12]): 0
- HepSE_hepatic failure (Hepatotoxicity [13]): 0
- HepSE_hepatomegaly (Hepatotoxicity [14]): 0

Structure (SMILES): COc1ccnc(C[S+]([O-])c2nc3ccc(OC(F)F)cc3[nH]2)c1OC (configuration not stated) [PANTOPRAZOLE]
- HepSE_cirrhosis (Hepatotoxicity [1]): 0
- HepSE_cholelithiasis (Hepatotoxicity [2]): 1
- HepSE_elevated liver function tests (Hepatotoxicity [3]): 0
- HepSE_liver fatty (Hepatotoxicity [4]): 0
- HepSE_cholecystitis (Hepatotoxicity [5]): 1
- HepSE_Combined Scores (Hepatotoxicity [6]): 7
- HepSE_jaundice (Hepatotoxicity [7]): 1
- HepSE_hepatitis (Hepatotoxicity [8]): 1
- HepSE_liver function tests abnormal (Hepatotoxicity [9]): 1
- HepSE_bilirubinemia (Hepatotoxicity [10]): 1
- HepSE_hepatic necrosis (Hepatotoxicity [11]): 0
- HepSE_liver disease (Hepatotoxicity [12]): 0
- HepSE_hepatic failure (Hepatotoxicity [13]): 1
- HepSE_hepatomegaly (Hepatotoxicity [14]): 0
